Several values for one entry are separate records, joined by “and”; a condition that tells them apart may be missing. Equal entries are not always repeated.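 Cultured in 96-well plates, cells were exposed to test compound for 48 hours across five concentrations. GI50 is the concentration that inhibits growth by half. TGI: total growth inhibition.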

The text below walks through data of PubChem BioAssay (NCI).

One assay relates to MDA-MB-231 breast. Put plainly: NCI tumour cell line growth inhibition, 48 h.
Turning to `O=C(CCl)c1ccc([N+](=O)[O-])o1`, the GI50 was 4900 nM and the TGI is 13700 nM.
`Nc1ncnc2c1ccn2C1OC2COP(=O)(O)OC2C1O` (stereo not given) displayed a TGI of 12200 nM.
Take `Cc1cc(N2CCCCC2)nc(N(CCNc2ccnc3cc(Cl)ccc23)Cc2ccco2)n1`: the GI50 is 1830 nM and the TGI was 3530 nM.
For `O=C(O)[C@@H]1C2CC([C@@H]1C(=O)O)[C@H](N1C(=O)CCC1=O)[C@@H]2Br` (stereo not given in full), the TGI is greater than 100000 nM.
As to `COc1cc2cc(Oc3ccc(NC(=O)Nc4ccc(Cl)c(C(F)(F)F)c4)cc3)c(C)nc2cc1OCCN1CCCCC1`, the GI50 is 1390 nM and the TGI came out at 2750 nM.
Regarding `CC[C@H](Nc1nc(N)nc(C)c1C#N)c1nc2cccc(CN(C)c3ncc(C(=O)NO)cn3)c2c(=O)n1-c1ccccc1`, the GI50 was 779 nM and the TGI came out at 3080 nM.
For `CC1=CC(=O)c2c(O)cccc2C1=O`, the TGI is 3640 nM.
Consider `CC12CCC(=O)C(O1)C1C(=O)c3cc4ccccc4cc3C(=O)C12` (stereo not given), for which the GI50 was 14900 nM and the TGI stood at 35600 nM.

Another assay concerns MDA-MB-435. Put plainly: NCI tumour cell line growth inhibition, 48 h.
For `O=c1cc(CNc2cc(F)cc(F)c2)c2ccc(I)cc2[nH]1`, the GI50 was 108 nM and the TGI was found to be 499 nM.
`CCCN(Cc1ccc(F)cc1)c1ccc(CO)c(Cl)c1`: the GI50 is 14600 nM and the TGI was determined as 29000 nM.
In turn, `CC[C@](C)(O)C(=O)O[C@H]1C(=O)O[C@@H]2C[C@H]3C(C)=CC(=O)[C@@H](O)[C@]3(C)[C@H]3[C@@]4(O)OC[C@]32[C@@H]1[C@@H](C)[C@H]4O` came in with a TGI greater than 24300 nM.
For `CCN1C(=O)N(CC)C2C1NN=c1s/c(=C3\C(=O)N(C(C)C)c4ccccc43)c(=O)n12` (stereo not given), the GI50 is 192 nM and the TGI is 487 nM.
With `NC(=O)[C@H]1CCN(c2ncnc(N)c2F)C[C@@H]1N1CCC[C@@H](Nc2cc(Cl)cc(C(F)(F)F)c2)C1=O`, the GI50 was 14300 nM and the TGI came out at 39500 nM.
`CCN(CC)c1ccc(/C=C/c2cc(C)c3ccccc3n2)cc1`: the GI50 is 328 nM and the TGI turned out to be 1900 nM.
In the same order, the values of `Cc1ccc2[nH]c(C(=O)NN3C(=O)CSC34CCCCC4C)c(-c3ccccc3)c2c1` (stereo not given) are 17900 nM and 34700 nM.
On the same counts, the results for `CCN=C1C=CC(=C(c2ccc(N(C)C)cc2)c2ccc(N(C)C)cc2)c2ccccc21` are 70.5 nM and 408 nM.
For the molecule `O=C(CCl)c1ccc([N+](=O)[O-])o1`, the GI50 is 1890 nM and the TGI was 4220 nM.
`Nc1ncnc2c1ccn2C1OC2COP(=O)(O)OC2C1O` (stereo not given) gave a TGI of 2310 nM.
On to `Cc1cc(N2CCCCC2)nc(N(CCNc2ccnc3cc(Cl)ccc23)Cc2ccco2)n1`, for which the GI50 is 1800 nM and the TGI was 3520 nM.
`O=C(O)[C@@H]1C2CC([C@@H]1C(=O)O)[C@H](N1C(=O)CCC1=O)[C@@H]2Br` (stereo not given in full) showed a TGI greater than 100000 nM.
For `COc1cc2cc(Oc3ccc(NC(=O)Nc4ccc(Cl)c(C(F)(F)F)c4)cc3)c(C)nc2cc1OCCN1CCCCC1`, the GI50 was 1560 nM and the TGI turned out to be 2920 nM.
In the case of `CC[C@H](Nc1nc(N)nc(C)c1C#N)c1nc2cccc(CN(C)c3ncc(C(=O)NO)cn3)c2c(=O)n1-c1ccccc1`, the GI50 is 617 nM and the TGI is 2260 nM.
The molecule `CC1=CC(=O)c2c(O)cccc2C1=O` showed a TGI of 3260 nM.
Regarding `CC12CCC(=O)C(O1)C1C(=O)c3cc4ccccc4cc3C(=O)C12` (stereo not given), the GI50 is 17700 nM and the TGI stood at 34000 nM.

A further assay concerns OVCAR-3 ovarian. The assay is described as follows: NCI tumour cell line growth inhibition, 48 h.
For the molecule `O=c1cc(CNc2cc(F)cc(F)c2)c2ccc(I)cc2[nH]1`, the GI50 is 336 nM and the TGI turned out to be 39600 nM.
For `CCCN(Cc1ccc(F)cc1)c1ccc(CO)c(Cl)c1`, the GI50 was 662 nM and the TGI is 4020 nM.
Consider `CC[C@](C)(O)C(=O)O[C@H]1C(=O)O[C@@H]2C[C@H]3C(C)=CC(=O)[C@@H](O)[C@]3(C)[C@H]3[C@@]4(O)OC[C@]32[C@@H]1[C@@H](C)[C@H]4O`, for which the GI50 was 387 nM; the TGI is 502 nM and 1620 nM.
As to `CCN1C(=O)N(CC)C2C1NN=c1s/c(=C3\C(=O)N(C(C)C)c4ccccc43)c(=O)n12` (stereo not given), the GI50 was 294 nM and the TGI is 841 nM.
Regarding `NC(=O)[C@H]1CCN(c2ncnc(N)c2F)C[C@@H]1N1CCC[C@@H](Nc2cc(Cl)cc(C(F)(F)F)c2)C1=O`, the GI50 was 28500 nM and the TGI is greater than 100000 nM.
Take `CCN(CC)c1ccc(/C=C/c2cc(C)c3ccccc3n2)cc1`: the GI50 is 1820 nM and the TGI is 4780 nM.
On the same counts, the results for `Cc1ccc2[nH]c(C(=O)NN3C(=O)CSC34CCCCC4C)c(-c3ccccc3)c2c1` (stereo not given) are 13900 nM and 30100 nM.
Take `CCN=C1C=CC(=C(c2ccc(N(C)C)cc2)c2ccc(N(C)C)cc2)c2ccccc21`: the GI50 is 30.1 nM and the TGI turned out to be 121 nM.
Turning to `O=C(CCl)c1ccc([N+](=O)[O-])o1`, the GI50 was 1250 nM and the TGI is 2580 nM.
The molecule `Nc1ncnc2c1ccn2C1OC2COP(=O)(O)OC2C1O` (stereo not given) showed a TGI greater than 96300 nM.
For the molecule `Cc1cc(N2CCCCC2)nc(N(CCNc2ccnc3cc(Cl)ccc23)Cc2ccco2)n1`, the GI50 is 1740 nM and the TGI was 3140 nM.
In the case of `O=C(O)[C@@H]1C2CC([C@@H]1C(=O)O)[C@H](N1C(=O)CCC1=O)[C@@H]2Br` (stereo not given in full), the TGI is greater than 100000 nM.
In the case of `COc1cc2cc(Oc3ccc(NC(=O)Nc4ccc(Cl)c(C(F)(F)F)c4)cc3)c(C)nc2cc1OCCN1CCCCC1`, the GI50 is 1600 nM and the TGI was determined as 3030 nM.
With `CC[C@H](Nc1nc(N)nc(C)c1C#N)c1nc2cccc(CN(C)c3ncc(C(=O)NO)cn3)c2c(=O)n1-c1ccccc1`, the GI50 is 761 nM and the TGI was found to be 2280 nM.
`CC1=CC(=O)c2c(O)cccc2C1=O` showed a TGI of 2290 nM.

A further assay has as its system OVCAR-8 ovarian. Put plainly: NCI tumour cell line growth inhibition, 48 h.
Take `O=c1cc(CNc2cc(F)cc(F)c2)c2ccc(I)cc2[nH]1`: the GI50 was 2830 nM and the TGI is greater than 100000 nM.
